# Legend:
# [1] = biological target: T1, recombinant human ALK5 (TGF-βR1) protein (Homo sapiens, UniProt P36897); experiment: Biochemical ALK5 (TGF-βR1) assay to measure pKi (LANCE Ultra ULight kinase assay); settings: apparent pKi from pIC50 by Cheng-Prusoff, read-out: ALK5 pKi (converted)
# T1 construct: purchased Life Technologies PR9075A
# T1 sequence (P36897 34-503): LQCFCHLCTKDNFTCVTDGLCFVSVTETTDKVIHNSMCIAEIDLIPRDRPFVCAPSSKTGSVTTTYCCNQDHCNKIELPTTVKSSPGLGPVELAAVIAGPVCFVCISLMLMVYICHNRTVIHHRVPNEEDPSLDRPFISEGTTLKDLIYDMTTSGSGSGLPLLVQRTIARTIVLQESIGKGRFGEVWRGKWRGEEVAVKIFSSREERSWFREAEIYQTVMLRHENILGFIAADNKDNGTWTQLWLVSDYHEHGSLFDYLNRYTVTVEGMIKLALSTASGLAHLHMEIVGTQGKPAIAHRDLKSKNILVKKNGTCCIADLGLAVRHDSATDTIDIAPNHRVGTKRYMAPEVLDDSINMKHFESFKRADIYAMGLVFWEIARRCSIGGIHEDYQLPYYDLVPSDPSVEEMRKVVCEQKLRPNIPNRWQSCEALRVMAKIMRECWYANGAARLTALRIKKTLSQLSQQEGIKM
# In short: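 Compounds (10 μM to 25 pM) were preincubated 60 min at room temperature with enzyme, then reactions were started with ATP (125 μM stock, 5× final) and run 60 min at 37 °C. EDTA-containing Eu-anti-phospho-Topo IIα (Thr1342) antibody stopped the reaction; TR-FRET read at 665 nm. pIC50 from 4-parameter fit, converted to pKi via Cheng-Prusoff.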
# [2] = test system: TGF-β-stimulated SMAD3 phosphorylation in BEAS-2B cells; experiment: Cellular ALK5 potency assay, inhibition of TGF-β stimulated pSMAD3 formation in BEAS-2B cells; assay type: cell-based; settings: Homo sapiens; inhibition of TGF-β stimulated pSMAD3 formation, BEAS-2B cells; read-out: BEAS2B pIC50 (converted)
# In short: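 BEAS-2B human lung epithelial cells pre-treated 1 h at 37° C with compound in HBSS/25 mM HEPES/1% BSA, then stimulated 30 min with 10 ng/mL TGF-β (final). Lysates assayed for pSMAD3 by AlphaLISA; pIC50 from dose-dependent change versus stimulated untreated cells.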
Ki [1],SMILES,IC50 [2]
39.8 to 316 pM,"Cc1cccc(-c2[nH]cnc2-c2ccc3ncc(-c4ccc(C(=O)OC5CCNCC5)cc4)cc3c2)n1 [Compound 310, 4-piperidyl 4-[6-[5-(6-methyl-2-pyridyl)-1H-imidazol-4-yl]-3-quinolyl]benzoate]",25100 to 158000 pM
39.8 to 316 pM,"Cc1cccc(-c2[nH]ncc2-c2ccc3ncc(C(=O)OC[C@@H]4CCCCN4)cc3c2)n1 [Compound 1205, [(2S)-2-piperidyl]methyl 6-[5-(6-methyl-2-pyridyl)-1H-pyrazol-4-yl]quinoline-3-carboxylate]",< 20000 pM
< 31.6 pM,"COc1ccc(-c2cnc3ccc(-c4c[nH]nc4-c4cccc(C)n4)nc3c2)cn1 [Compound 420, 7-(6-methoxy-3-pyridyl)-2-[3-(6-methyl-2-pyridyl)-1H-pyrazol-4-yl]-1,5-naphthyridine]",< 20000 pM
39.8 to 316 pM,"Cc1cccc(-c2n[nH]cc2-c2ccc3ncc(-c4cn(-c5ccccc5)nn4)cc3n2)n1 [Compound 111, 2-[3-(6-methyl-2-pyridyl)-1H-pyrazol-4-yl]-7-(1-phenyltriazol-4-yl)-1,5-naphthyridine]",< 20000 pM

# Reference: patent US11590116B2 (THERAVANCE BIOPHARMA R&D IP, LLC, priority 2019, dated 2023)
